Reference: paper PMC10378394 (Current Issues in Molecular Biology, 2023)

Tests used:
[1] = target: PKCζ(h) (Homo sapiens, UniProt Q05513); experiment: Eurofins kinase assay
[2] = test system: HUVECs; experiment: Tube formation assay; type: cell-based, human
Method: Cell culture plates were coated with Matrigel at a concentration of 7 mg/mL and incubated at 37 °C for 45 min to allow gel formation. Human umbilical vein endothelial cells (HUVECs) were harvested using trypsin and resuspended in endothelial cell growth medium. Following a 5 h incubation period, the formation of endothelial cell tubes was assessed using an inverted photomicroscope (Nikon, Tokyo, Japan). Microphotographs were taken, and the quantification of tube formation, specifically tube length, was performed. To quantify tube formation, measurements were obtained using ImageJ. The long axis of each tube or single cell, as well as groups of adjacent cells, was measured.

[3] = target: MAPK1(h) (Homo sapiens, UniProt P27361); experiment: Eurofins kinase assay
[4] = target: CSF1R (Homo sapiens, UniProt P07333); experiment: Eurofins kinase assay
[5] = target: PKCμ(h) (Homo sapiens, UniProt Q15139); experiment: Eurofins kinase assay
[6] = target: CDK2/cyclinE(h) (Homo sapiens, UniProt P24941); experiment: Eurofins kinase assay
[7] = target: PDGFRα(h) (Homo sapiens, UniProt P16234); experiment: Eurofins kinase assay
[8] = target: MEK1(h) (Homo sapiens, UniProt Q02750); experiment: Eurofins kinase assay
[9] = target: PI3Kinase(p110a(E542K)/p85a)(m) (Mus musculus, UniProt P42337, E542K); experiment: Eurofins kinase assay
[10] = target: BRAF (Homo sapiens, UniProt P15056); experiment: KiNativ cell-based kinase assay in HCT116; design: purchased Eurofins (Poitiers, France)
Method: (§1) Kinase selectivity profiling in cells was carried out using the KiNativ assay developed by ActivX Biosciences (La Jolla, CA, USA). HCT 116 cells were utilized for the experiment. […] Following the treatment, the cells were lysed, and the lysates were processed for further analysis. Probe labeling was performed using the lysates, and the labeled samples were subjected to LC/MS-MS (Liquid Chromatography/Mass Spectrometry) analysis.

[11] = target: CRAF (Homo sapiens, UniProt P04049); experiment: KiNativ cell-based kinase assay in HCT116; design: purchased Eurofins (Poitiers, France)
Method: as §1

[12] = target: T1, ARAF (Homo sapiens, UniProt P10398); experiment: KiNativ cell-based kinase assay in HCT116; design: purchased Eurofins (Poitiers, France); details: HCT116, full-length protein; read-out: Binding Affinities in HCT116 (EC50)
T1 sequence (P10398 1-606): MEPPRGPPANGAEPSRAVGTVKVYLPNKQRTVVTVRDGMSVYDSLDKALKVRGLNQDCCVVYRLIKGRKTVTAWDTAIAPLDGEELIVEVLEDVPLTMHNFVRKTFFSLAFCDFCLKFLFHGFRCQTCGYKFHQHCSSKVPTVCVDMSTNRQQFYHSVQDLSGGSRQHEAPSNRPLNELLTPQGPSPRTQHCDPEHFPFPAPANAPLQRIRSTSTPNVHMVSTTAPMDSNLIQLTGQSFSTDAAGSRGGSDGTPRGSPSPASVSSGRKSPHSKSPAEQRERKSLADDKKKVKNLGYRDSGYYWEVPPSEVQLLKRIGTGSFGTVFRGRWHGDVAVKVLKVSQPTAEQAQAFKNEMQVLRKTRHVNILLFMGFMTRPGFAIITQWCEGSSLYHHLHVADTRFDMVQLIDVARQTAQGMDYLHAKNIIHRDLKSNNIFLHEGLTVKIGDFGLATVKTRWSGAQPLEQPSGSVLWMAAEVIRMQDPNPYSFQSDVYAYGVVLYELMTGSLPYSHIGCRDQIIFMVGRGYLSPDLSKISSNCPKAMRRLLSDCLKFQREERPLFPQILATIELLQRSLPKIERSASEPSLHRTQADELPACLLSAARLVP
Method: as §1

[13] = target: Flt3(h) (Homo sapiens, UniProt P36888); experiment: Eurofins kinase assay
[14] = test system: LS513 (KRAS G12D) xenograft; experiment: In vivo efficacy, xenograft; design: species or system BALB/c nude mice; details: day 17
Method: (§2) Human-derived colorectal cancer cell lines, LS513, HCT-116, and HT29, were subcutaneously transplanted into 6-week-old female BALB/c nude mice to establish tumor models. Additionally, the mouse cancer cell line MC38 was subcutaneously transplanted into 6-week-old female and C57BL/6 mice to induce tumor formation. […]. The treatments were administered orally once daily for 2 weeks based on the growth rate observed in the vehicle group. Tumor volume was evaluated three times a week using the formula Tumor volume (TV) = (tumor short diameter ^2 × tumor long diameter)/2. The body weight of the mice was measured three times a week to assess potential toxicity in vivo. […]

[15] = test system: HCT116 (KRAS G13D) xenograft; experiment: In vivo efficacy, xenograft; design: species or system BALB/c nude mice; details: 16 days
Method: as §2

[16] = test system: HT29 (BRAF V600E) xenograft; experiment: In vivo efficacy, xenograft; design: species or system BALB/c nude mice
Method: as §2

[17] = target: PKBα(h) (Homo sapiens, UniProt P31749); experiment: Eurofins kinase assay
[18] = target: PRAK(h) (Homo sapiens, UniProt Q8IW41); experiment: Eurofins kinase assay
[19] = target: PKCα(h) (Homo sapiens, UniProt P17252); experiment: Eurofins kinase assay
[20] = 2-week repeated oral DRF toxicity study; type: in vivo
[21] = target: Fyn(h) (Homo sapiens, UniProt P06241); experiment: Eurofins kinase assay
[22] = HCT116, full-length protein, read-out: Binding Affinities in HCT116 (EC50)
[23] = HCT 116 cells, 2 h, 10 µM, read-out: inhibition of probe binding

Chain of CSF1R (P07333 20-972): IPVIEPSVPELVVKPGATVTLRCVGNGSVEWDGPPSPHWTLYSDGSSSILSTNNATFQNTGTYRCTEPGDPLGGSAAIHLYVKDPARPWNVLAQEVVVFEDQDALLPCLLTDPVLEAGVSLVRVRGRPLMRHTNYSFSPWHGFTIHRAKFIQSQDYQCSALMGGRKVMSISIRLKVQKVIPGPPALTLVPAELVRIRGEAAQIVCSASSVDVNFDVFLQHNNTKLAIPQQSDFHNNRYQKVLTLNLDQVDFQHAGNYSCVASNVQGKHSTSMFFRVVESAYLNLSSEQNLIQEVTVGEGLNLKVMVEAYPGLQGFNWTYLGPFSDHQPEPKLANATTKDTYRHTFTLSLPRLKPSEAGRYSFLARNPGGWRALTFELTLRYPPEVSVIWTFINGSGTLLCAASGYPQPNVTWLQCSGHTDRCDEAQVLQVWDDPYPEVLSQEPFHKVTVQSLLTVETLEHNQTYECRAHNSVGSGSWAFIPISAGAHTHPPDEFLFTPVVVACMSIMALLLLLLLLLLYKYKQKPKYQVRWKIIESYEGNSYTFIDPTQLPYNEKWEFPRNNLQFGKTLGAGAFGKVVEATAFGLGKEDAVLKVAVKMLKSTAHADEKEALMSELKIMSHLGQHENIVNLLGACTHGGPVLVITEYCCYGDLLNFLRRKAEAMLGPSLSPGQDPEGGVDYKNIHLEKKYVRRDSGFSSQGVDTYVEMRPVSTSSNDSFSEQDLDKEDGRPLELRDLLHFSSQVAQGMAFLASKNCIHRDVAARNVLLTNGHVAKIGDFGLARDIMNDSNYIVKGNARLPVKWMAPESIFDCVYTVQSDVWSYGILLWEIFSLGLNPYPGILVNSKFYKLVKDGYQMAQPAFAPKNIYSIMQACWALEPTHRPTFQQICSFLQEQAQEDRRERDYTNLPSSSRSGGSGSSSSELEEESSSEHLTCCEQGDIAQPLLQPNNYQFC
Chain of BRAF (P15056 whole entry): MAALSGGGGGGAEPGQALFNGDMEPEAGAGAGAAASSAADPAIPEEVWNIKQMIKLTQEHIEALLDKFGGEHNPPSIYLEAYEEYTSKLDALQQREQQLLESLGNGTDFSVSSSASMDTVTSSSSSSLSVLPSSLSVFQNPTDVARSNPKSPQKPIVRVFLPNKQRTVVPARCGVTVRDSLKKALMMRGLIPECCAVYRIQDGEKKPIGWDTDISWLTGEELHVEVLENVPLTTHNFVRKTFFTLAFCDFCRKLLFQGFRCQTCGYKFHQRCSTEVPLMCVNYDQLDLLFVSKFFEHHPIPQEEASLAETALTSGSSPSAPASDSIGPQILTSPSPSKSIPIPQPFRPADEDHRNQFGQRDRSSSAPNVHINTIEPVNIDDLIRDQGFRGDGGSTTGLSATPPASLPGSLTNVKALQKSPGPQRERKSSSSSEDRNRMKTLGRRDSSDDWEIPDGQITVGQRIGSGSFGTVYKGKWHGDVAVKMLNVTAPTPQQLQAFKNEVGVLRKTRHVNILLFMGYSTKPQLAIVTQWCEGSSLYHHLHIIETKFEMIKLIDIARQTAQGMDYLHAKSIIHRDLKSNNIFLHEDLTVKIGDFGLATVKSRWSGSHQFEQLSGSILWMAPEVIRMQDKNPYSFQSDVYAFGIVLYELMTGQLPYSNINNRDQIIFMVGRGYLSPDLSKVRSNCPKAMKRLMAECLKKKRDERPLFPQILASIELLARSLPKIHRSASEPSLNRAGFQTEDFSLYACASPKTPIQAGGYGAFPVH
Chain of CRAF (P04049 whole entry): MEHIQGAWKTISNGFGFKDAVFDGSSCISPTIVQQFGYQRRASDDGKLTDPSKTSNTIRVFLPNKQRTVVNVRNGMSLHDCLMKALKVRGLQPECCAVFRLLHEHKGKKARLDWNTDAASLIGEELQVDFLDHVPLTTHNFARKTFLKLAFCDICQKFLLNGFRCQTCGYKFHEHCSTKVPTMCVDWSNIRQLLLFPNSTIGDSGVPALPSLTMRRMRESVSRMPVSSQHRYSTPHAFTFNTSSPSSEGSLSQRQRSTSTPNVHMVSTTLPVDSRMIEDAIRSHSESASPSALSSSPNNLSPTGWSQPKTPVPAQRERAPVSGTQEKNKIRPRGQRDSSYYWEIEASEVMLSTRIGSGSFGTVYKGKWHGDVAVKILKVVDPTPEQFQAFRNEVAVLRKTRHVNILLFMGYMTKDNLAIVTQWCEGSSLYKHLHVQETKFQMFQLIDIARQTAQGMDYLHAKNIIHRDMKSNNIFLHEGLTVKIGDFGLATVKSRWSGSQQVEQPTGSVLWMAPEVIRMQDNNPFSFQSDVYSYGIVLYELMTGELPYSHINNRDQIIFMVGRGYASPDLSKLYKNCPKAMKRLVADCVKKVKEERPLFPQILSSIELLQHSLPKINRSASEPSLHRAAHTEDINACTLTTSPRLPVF
Chain of PKCζ(h) (Q05513 whole entry): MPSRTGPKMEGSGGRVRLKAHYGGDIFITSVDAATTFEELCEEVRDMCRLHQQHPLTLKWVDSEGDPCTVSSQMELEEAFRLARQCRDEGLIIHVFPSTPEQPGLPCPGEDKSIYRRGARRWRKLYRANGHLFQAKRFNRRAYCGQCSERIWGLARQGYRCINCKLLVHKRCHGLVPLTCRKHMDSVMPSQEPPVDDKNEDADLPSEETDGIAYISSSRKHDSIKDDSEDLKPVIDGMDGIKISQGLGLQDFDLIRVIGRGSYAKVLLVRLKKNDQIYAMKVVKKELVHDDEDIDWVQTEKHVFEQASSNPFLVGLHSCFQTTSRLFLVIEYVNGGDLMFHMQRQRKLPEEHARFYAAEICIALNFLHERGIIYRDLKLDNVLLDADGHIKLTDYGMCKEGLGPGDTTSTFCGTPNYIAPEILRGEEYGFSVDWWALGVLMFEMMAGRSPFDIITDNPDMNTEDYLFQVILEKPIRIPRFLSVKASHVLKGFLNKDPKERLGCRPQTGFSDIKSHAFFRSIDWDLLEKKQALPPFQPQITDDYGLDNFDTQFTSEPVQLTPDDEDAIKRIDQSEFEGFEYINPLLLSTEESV
Chain of MEK1(h) (Q02750 whole entry): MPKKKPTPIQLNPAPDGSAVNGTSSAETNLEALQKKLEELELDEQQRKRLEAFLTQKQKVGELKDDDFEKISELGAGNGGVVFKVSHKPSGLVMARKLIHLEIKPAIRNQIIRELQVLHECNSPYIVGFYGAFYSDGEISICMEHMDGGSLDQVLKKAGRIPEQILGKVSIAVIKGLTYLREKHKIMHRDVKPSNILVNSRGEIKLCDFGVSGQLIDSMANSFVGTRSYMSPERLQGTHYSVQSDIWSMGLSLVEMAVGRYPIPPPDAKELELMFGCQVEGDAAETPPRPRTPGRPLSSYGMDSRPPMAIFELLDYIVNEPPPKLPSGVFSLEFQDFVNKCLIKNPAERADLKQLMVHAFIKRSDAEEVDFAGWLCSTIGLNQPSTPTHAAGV
Chain of PRAK(h) (Q8IW41 whole entry): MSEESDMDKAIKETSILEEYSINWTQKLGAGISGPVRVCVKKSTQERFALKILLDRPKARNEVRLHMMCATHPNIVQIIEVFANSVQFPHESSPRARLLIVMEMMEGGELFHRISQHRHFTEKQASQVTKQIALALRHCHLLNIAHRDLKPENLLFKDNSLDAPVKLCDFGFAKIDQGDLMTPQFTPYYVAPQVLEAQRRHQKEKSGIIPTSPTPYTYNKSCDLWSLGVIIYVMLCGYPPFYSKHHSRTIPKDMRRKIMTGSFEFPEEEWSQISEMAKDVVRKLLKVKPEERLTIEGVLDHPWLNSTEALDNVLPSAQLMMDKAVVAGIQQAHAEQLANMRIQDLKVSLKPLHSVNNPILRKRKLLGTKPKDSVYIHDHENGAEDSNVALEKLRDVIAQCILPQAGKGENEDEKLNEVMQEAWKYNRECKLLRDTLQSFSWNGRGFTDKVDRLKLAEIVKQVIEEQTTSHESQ
Chain of MAPK1(h) (P27361 whole entry): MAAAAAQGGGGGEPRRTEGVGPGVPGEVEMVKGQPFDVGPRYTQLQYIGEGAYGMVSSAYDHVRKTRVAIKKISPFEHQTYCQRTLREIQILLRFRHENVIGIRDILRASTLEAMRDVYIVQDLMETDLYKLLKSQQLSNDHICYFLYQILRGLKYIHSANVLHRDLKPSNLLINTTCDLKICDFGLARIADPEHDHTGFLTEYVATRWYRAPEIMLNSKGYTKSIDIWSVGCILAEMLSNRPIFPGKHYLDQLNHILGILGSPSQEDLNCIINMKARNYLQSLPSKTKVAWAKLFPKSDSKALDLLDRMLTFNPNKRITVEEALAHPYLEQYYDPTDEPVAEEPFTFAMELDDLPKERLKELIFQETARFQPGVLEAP

For `O=C(Nc1cc(Nc2ncccc2-c2ncnc3[nH]cnc23)ccc1F)c1cc(C(F)(F)F)cc(C(F)(F)F)c1` [SJ-C1044, N-(5-(3-(9H-purin-6-yl)pyridin-2-ylamino)-2-fluorophenyl)-3,5-bis(trifluoromethyl)benzamide], which inhibition at 10 µM [1] is on record?
The inhibition at 10 µM was 1%.

What about the “VEGF-stimulated endothelial tube formation” value [2] of the same compound?
The value was “strong activity”.

And the “VEGF-induced tube formation, compared to LY3009120” value ([2]; 10 μM, 10 nmol/L VEGF)?
Its value is “more effectively blocked”.

What about the inhibition at 10 µM [3] of the same compound?
Its inhibition at 10 µM is -3%.

What about the IC50 [4] of the same compound?
The IC50 was 235 nM.

What about the inhibition at 10 µM [4] of the same compound?
Its inhibition at 10 µM is 70%.

And the inhibition at 10 µM [5]?
Its inhibition at 10 µM is -3%.

What about the inhibition at 10 µM [6] of the same compound?
Its inhibition at 10 µM is 2%.

What about the inhibition at 10 µM [7] of the same compound?
Its inhibition at 10 µM is -10%.

And the inhibition at 10 µM [8]?
The inhibition at 10 µM was 1%.

And the inhibition at 10 µM [9]?
Its inhibition at 10 µM is 24%.

And the EC50 [10, 22]?
Its EC50 is 1300 nM.

And the inhibition at 10 µM [10, 23]?
Its inhibition at 10 µM is 86%.

And the EC50 [11, 22]?
Its EC50 is 1400 nM.

What about the inhibition at 10 µM [11, 23] of the same compound?
Its inhibition at 10 µM is 83%.

And the EC50 [12]?
The EC50 was over 10000 nM.

And the inhibition at 10 µM [13]?
The inhibition at 10 µM was 3%.

What about the TGI ([14]; 20 mg/kg po QD) of the same compound?
The TGI was 50%.

What about the TGI ([14]; 40 mg/kg po QD) of the same compound?
The TGI was 63%.

And the TGI ([14]; 80 mg/kg po QD)?
The TGI was 66%.

What about the TGI ([15]; 20 mg/kg po QD) of the same compound?
Its TGI is 72%.

What about the TGI ([15]; 40 mg/kg po QD) of the same compound?
Its TGI is 87%.

And the TGI ([15]; 80 mg/kg po QD)?
Its TGI is 107%.

What about the TGI ([16]; 20 mg/kg po QD) of the same compound?
The TGI was 58%.

And the TGI ([16]; 40 mg/kg po QD)?
Its TGI is 94%.

And the TGI ([16]; 80 mg/kg po QD)?
Its TGI is 117%.

And the inhibition at 10 µM [17]?
Its inhibition at 10 µM is 15%.

And the inhibition at 10 µM [18]?
The inhibition at 10 µM was -15%.

And the inhibition at 10 µM [19]?
The inhibition at 10 µM was -14%.

And the “2-week repeated oral toxicity” value ([20]; 250 mg/kg oral)?
The value was “no toxicity”.

And the “2-week repeated oral toxicity” value ([20]; 500 mg/kg oral)?
The value was “decreased body weight”.

And the inhibition at 10 µM [21]?
The inhibition at 10 µM was 27%.
